These results are taken from ChEMBL document CHEMBL2331505, “Synthesis of quinoline derivatives: discovery of a potent and selective phosphodiesterase 5 inhibitor for the treatment of Alzheimer's disease” (Eur J Med Chem, 2013).

Assay [1] has as its target High affinity cGMP-specific 3',5'-cyclic phosphodiesterase 9A (Homo sapiens, UniProt O76083). Kind of assay: Inhibition of PDE9 (unknown origin) using FAM-cGMP as substrate after 60 mins by fluorescence assay.
Assay [2] addresses cGMP-dependent 3',5'-cyclic phosphodiesterase (Homo sapiens, UniProt O00408). The assay is described as follows: Inhibition of PDE2 (unknown origin) using FAM-cGMP and FAM-cAMP as substrate after 60 mins by fluorescence assay.
A further assay addresses Phosphodiesterase 3 (Homo sapiens, UniProt Q14432+Q13370). Kind of assay: Inhibition of PDE3 (unknown origin) using FAM-cGMP and FAM-cAMP as substrate after 60 mins by fluorescence assay. The assay is classed as protein assay.
For a further assay, the target named is Phosphodiesterase 7 (Homo sapiens, UniProt Q13946+Q9NP56). The assay is described as follows: Inhibition of PDE7 (unknown origin) using FAM-cAMP as substrate after 60 mins by fluorescence assay. In kind it is protein assay.
A further assay deals with Phosphodiesterase 1 (Homo sapiens, UniProt P54750+Q01064+Q14123). Kind of assay: Inhibition of PDE1 (unknown origin) using FAM-cGMP and FAM-cAMP as substrate after 60 mins by fluorescence assay. The assay is classed as protein assay.
The target of a further assay is Phosphodiesterase 8 (Homo sapiens, UniProt O95263+O60658). The assay is described as follows: Inhibition of PDE8 (unknown origin) using FAM-cAMP as substrate after 60 mins by fluorescence assay. The assay is classed as protein assay.
Assay [3] concerns the target cAMP and cAMP-inhibited cGMP 3',5'-cyclic phosphodiesterase 10A (Homo sapiens, UniProt Q9Y233). The assay is described as follows: Inhibition of PDE10 (unknown origin) using FAM-cGMP and FAM-cAMP as substrate after 60 mins by fluorescence assay.
The species entered for assay [4] is Homo sapiens. The assay is described as follows: Selectivity ratio of IC50 for PDE4 (unknown origin) to IC50 for PDE5 (unknown origin).
The species entered for assay [5] is Homo sapiens. The assay is described as follows: Selectivity ratio of IC50 for PDE11 (unknown origin) to IC50 for PDE5 (unknown origin).
The species named for assay [6] is Homo sapiens. Kind of assay: Selectivity ratio of IC50 for PDE8 (unknown origin) to IC50 for PDE5 (unknown origin).
For assay [7], the species on record is Homo sapiens. The assay is described as follows: Selectivity ratio of IC50 for PDE3 (unknown origin) to IC50 for PDE5 (unknown origin).
Assay [8] is filed under the species Homo sapiens. The assay is described as follows: Selectivity ratio of IC50 for PDE2 (unknown origin) to IC50 for PDE5 (unknown origin).
Assay [9] addresses cGMP-specific 3',5'-cyclic phosphodiesterase (Homo sapiens, UniProt O76074). The assay is described as follows: Inhibition of PDE5 (unknown origin) using FAM-cGMP as substrate after 60 mins by fluorescence assay.
Assay [10] is filed under the species Homo sapiens. Kind of assay: Selectivity ratio of IC50 for PDE10 (unknown origin) to IC50 for PDE5 (unknown origin).
The species entered for assay [11] is Homo sapiens. The assay is described as follows: Selectivity ratio of IC50 for PDE9 (unknown origin) to IC50 for PDE5 (unknown origin).
The species named for assay [12] is Homo sapiens. The assay is described as follows: Selectivity ratio of IC50 for PDE7 (unknown origin) to IC50 for PDE5 (unknown origin).
For assay [13], the species on record is Homo sapiens. The assay is described as follows: Selectivity ratio of IC50 for PDE1 (unknown origin) to IC50 for PDE5 (unknown origin).
The species entered for assay [14] is Homo sapiens. Kind of assay: Selectivity ratio of IC50 for PDE6 (unknown origin) to IC50 for PDE5 (unknown origin).
The next assay has as its target Phosphodiesterase 4 (Homo sapiens, UniProt P27815+Q08499+Q07343+Q08493). Kind of assay: Inhibition of PDE4 (unknown origin) using FAM-cAMP as substrate after 60 mins by fluorescence assay. The assay is classed as protein assay.
The target of assay [15] is Dual 3',5'-cyclic-AMP and -GMP phosphodiesterase 11A (Homo sapiens, UniProt Q9HCR9). Kind of assay: Inhibition of PDE11 (unknown origin) using FAM-cGMP and FAM-cAMP as substrate after 60 mins by fluorescence assay.
The target of a further assay is Phosphodiesterase 6. The assay is described as follows: Inhibition of PDE6 (unknown origin) using FAM-cGMP as substrate after 60 mins by fluorescence assay. The assay is classed as protein assay, Homo sapiens.

The structures appear in SMILES notation.

Chain of cGMP-dependent 3',5'-cyclic phosphodiesterase (O00408 whole entry): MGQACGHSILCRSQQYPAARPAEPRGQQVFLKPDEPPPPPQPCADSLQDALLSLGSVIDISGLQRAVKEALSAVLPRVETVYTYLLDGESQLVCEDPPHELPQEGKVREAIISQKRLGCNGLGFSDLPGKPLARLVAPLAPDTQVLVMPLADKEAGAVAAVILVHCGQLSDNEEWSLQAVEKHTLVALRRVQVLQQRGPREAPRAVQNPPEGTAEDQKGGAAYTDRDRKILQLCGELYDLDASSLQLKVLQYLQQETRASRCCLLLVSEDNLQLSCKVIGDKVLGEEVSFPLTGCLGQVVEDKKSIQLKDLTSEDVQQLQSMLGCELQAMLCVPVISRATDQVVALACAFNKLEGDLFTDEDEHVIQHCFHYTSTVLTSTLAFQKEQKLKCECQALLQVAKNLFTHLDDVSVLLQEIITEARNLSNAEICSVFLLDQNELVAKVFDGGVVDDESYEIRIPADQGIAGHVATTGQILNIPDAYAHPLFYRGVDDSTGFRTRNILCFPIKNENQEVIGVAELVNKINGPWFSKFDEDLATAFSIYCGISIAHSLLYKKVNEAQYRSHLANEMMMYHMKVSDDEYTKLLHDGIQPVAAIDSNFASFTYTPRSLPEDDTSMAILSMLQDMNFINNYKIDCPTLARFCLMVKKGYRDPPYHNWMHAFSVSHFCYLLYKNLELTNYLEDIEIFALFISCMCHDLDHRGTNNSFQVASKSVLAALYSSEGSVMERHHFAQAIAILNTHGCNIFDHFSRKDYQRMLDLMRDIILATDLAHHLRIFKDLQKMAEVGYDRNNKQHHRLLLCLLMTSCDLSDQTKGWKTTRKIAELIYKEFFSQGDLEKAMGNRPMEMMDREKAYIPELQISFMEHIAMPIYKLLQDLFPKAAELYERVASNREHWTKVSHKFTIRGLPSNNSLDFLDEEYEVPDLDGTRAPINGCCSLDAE
Chain of cAMP and cAMP-inhibited cGMP 3',5'-cyclic phosphodiesterase 10A (Q9Y233 whole entry): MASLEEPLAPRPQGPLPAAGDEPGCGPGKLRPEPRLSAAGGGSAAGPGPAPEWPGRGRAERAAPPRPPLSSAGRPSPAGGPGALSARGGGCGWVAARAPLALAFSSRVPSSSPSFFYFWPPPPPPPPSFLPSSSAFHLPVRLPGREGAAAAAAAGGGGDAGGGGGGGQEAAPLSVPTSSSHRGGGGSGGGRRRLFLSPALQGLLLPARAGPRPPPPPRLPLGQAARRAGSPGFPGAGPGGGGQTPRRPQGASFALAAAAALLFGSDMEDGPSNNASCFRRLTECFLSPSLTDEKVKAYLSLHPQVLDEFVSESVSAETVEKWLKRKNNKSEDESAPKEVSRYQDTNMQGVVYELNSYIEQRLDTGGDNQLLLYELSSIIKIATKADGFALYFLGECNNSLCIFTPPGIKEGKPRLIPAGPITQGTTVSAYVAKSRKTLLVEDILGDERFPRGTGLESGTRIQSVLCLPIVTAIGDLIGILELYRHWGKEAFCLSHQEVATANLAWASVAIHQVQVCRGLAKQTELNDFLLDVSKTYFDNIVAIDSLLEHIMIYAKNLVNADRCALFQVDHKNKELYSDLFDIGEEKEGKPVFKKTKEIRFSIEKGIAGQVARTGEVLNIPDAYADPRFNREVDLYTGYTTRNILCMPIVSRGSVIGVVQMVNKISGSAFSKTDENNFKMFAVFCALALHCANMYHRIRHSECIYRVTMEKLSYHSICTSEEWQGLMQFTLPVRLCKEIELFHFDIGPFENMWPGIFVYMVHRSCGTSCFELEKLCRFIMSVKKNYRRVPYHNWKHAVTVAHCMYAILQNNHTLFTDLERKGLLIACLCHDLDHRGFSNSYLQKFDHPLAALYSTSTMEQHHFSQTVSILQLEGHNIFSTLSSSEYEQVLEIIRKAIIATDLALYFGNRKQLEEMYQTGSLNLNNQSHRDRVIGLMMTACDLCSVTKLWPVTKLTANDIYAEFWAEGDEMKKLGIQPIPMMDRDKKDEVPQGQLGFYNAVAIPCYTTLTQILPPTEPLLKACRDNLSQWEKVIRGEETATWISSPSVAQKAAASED
Chain of High affinity cGMP-specific 3',5'-cyclic phosphodiesterase 9A (O76083 whole entry): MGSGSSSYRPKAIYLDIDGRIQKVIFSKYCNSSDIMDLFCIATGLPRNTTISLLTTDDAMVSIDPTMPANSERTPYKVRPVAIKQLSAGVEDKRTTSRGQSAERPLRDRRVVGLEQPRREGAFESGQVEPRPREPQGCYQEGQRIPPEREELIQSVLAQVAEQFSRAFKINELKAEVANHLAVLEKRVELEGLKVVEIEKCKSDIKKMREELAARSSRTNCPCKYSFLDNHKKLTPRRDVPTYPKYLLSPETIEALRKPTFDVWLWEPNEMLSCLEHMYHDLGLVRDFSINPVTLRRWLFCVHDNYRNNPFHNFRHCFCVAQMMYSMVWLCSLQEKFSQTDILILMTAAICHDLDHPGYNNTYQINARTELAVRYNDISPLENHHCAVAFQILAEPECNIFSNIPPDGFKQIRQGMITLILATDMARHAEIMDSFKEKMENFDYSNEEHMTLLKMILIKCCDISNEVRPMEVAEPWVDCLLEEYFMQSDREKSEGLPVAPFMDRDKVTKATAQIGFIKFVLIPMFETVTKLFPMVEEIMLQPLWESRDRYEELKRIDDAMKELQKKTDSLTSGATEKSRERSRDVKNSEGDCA
Chain of Dual 3',5'-cyclic-AMP and -GMP phosphodiesterase 11A (Q9HCR9 whole entry): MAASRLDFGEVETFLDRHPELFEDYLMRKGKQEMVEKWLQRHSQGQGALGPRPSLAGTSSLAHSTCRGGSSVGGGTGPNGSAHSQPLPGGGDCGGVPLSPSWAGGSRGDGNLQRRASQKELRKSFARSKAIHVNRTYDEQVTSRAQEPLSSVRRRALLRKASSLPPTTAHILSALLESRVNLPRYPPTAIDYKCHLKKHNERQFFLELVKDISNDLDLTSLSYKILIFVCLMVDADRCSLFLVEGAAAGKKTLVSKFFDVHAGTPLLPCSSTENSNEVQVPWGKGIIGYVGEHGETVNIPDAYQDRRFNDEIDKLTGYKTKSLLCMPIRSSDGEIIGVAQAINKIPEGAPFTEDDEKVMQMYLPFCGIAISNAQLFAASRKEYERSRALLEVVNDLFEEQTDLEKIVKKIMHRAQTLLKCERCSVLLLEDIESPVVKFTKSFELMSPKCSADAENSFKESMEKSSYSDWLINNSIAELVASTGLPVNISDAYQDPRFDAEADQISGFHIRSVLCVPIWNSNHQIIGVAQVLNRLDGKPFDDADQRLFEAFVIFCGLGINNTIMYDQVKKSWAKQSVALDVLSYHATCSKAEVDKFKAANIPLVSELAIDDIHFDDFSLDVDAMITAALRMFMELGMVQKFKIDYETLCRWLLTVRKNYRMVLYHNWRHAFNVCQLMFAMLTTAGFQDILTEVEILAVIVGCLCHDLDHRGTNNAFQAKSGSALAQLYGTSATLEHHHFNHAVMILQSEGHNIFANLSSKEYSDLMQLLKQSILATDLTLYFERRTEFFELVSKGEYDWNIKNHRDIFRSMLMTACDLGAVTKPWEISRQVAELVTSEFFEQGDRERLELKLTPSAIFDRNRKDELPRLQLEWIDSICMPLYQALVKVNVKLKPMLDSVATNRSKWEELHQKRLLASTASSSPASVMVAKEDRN

For the compound `CN1CC(=O)N2[C@H](c3ccc4c(c3)OCO4)c3[nH]c4ccccc4c3C[C@@H]2C1=O`, the IC50 (in [1]; in assay [2]; against Phosphodiesterase 3; against Phosphodiesterase 7; against Phosphodiesterase 1; against Phosphodiesterase 8) was over 10 µM in each case. In addition, the IC50 in assay [3] is over 10 µM.

Turning to `COc1ccc(CNc2c(CO)cnc3c(N(C)C)cc(C#N)cc23)cc1Cl`, the Ratio IC50 in the assay filed under Homo sapiens [4], in the assay filed under Homo sapiens [5], in the assay filed under Homo sapiens [6], in the assay filed under Homo sapiens [7], in the assay listed under Homo sapiens [8] and in the assay listed under Homo sapiens [10] was over 10000 each time. In addition, the Ratio IC50 in the assay filed under Homo sapiens [11] was over 10000; in the assay filed under Homo sapiens [12], over 10000; in the assay listed under Homo sapiens [13] it was over 10000; in the assay listed under Homo sapiens [14], 12800. The IC50 in assay [9] is 0.0004 µM; in [1], over 10 µM; in assay [2], over 10 µM; against Phosphodiesterase 3, over 10 µM; against Phosphodiesterase 7 it was over 10 µM; on Phosphodiesterase 1, over 10 µM. The IC50 was over 10 µM at Phosphodiesterase 8; over 10 µM against Phosphodiesterase 4; over 10 µM in [3]; over 10 µM in assay [15]; 5.1 µM against Phosphodiesterase 6.

As for `COc1ccc(CNc2c(CO)cnc3c(NC4CC4)cc(C#N)cc23)cc1Cl`, the IC50 in assay [9] worked out at 0.0041 µM.

`CCNc1cc(C#N)cc2c(NCc3ccc(OC)c(Cl)c3)c(CO)cnc12` registered an IC50 in assay [9] of 0.015 µM. Against the preceding compound, the IC50 is about 3.7-fold higher.

As usually defined, the IC50 is the point on the concentration scale where inhibition reaches its midpoint. A higher IC50 goes with weaker potency in that assay.
